# Legend:
# RD = assay: Cytotoxicity against human RD cells incubated for 96 hrs by DIMSCAN method; format: functional, cell-based
# MDA-MB-231 = assay: Antiproliferative activity against human MDA-MB-231 cells incubated for 72 hrs by MTT assay; format: functional, cell-based; details: MDA-MB-231, 72 h
# MCF7 = assay: Antiproliferative activity against human MCF7 cells incubated for 72 hrs by MTT assay; format: functional, cell-based; details: MCF7, 72 h
# T47D = assay: Antiproliferative activity against human T-47D cells incubated for 72 hrs by MTT assay; format: functional, cell-based
# BT-474 = assay: Antiproliferative activity against human BT-474 cells incubated for 72 hrs by MTT assay; format: functional, cell-based; details: BT-474, 72 h
# Focal adhesion kinase 1 [1] = biological target: T1, Focal adhesion kinase 1 (Homo sapiens, UniProt Q05397); assay: Inhibition of FAK in human OVCAR8 cells assessed as reduction in phosphorylation at Y397 residue incubated for 30 mins by Western blot analysis
# Focal adhesion kinase 1 [2] = biological target: T1, Focal adhesion kinase 1; assay: Inhibition of FAK in human A549 cells assessed as reduction in phosphorylation at Y397 residue incubated for 30 mins by Western blot analysis
# Focal adhesion kinase 1 [3] = biological target: T1, Focal adhesion kinase 1; assay: Inhibition of FAK in human U87MG cells assessed as reduction in phosphorylation at Y397 residue incubated for 30 mins by Western blot analysis
# OVCAR-3 = assay: Cytotoxicity against human OVCAR-3 cells in presence of metformin and carboplatin relative to control; format: functional
# Focal adhesion kinase 1 [4] = biological target: T1, Focal adhesion kinase 1
# Description: Inhibition of FAK (unknown origin) (410 to 689 residues) assessed as reduction in poly(Glu-Tyr) phosphorylation using poly (Glu,Tyr) as substrate by ELISA-based assay
# [5] = biological target: Protein-tyrosine kinase 2-beta (Homo sapiens, UniProt Q14289); assay: Inhibition of pyk2 (unknown origin)
# [6] = biological target: von Hippel-Lindau disease tumor suppressor/Focal adhesion kinase 1 (Homo sapiens) (UniProt Q05397+P40337); assay: Induction of VHL-mediated FAK degradation in human PC3 cells at 10 to 10000 nM incubated for 24 hrs by Western blot analysis relative to control; format: cell-based; details: PC-3, dose 10-10000 nM
# Chain of von Hippel-Lindau disease tumor suppressor/Focal adhesion kinase 1 (Homo sapiens) (P40337 whole entry partner): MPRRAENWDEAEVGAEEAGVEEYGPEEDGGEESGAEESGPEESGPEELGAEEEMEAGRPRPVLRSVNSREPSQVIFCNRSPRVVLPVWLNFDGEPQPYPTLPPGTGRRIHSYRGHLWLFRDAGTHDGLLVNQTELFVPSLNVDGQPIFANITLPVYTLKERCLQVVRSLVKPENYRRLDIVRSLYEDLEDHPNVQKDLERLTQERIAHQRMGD
# Chain of von Hippel-Lindau disease tumor suppressor/Focal adhesion kinase 1 (Homo sapiens) (Q05397 2-1052 limits assumed): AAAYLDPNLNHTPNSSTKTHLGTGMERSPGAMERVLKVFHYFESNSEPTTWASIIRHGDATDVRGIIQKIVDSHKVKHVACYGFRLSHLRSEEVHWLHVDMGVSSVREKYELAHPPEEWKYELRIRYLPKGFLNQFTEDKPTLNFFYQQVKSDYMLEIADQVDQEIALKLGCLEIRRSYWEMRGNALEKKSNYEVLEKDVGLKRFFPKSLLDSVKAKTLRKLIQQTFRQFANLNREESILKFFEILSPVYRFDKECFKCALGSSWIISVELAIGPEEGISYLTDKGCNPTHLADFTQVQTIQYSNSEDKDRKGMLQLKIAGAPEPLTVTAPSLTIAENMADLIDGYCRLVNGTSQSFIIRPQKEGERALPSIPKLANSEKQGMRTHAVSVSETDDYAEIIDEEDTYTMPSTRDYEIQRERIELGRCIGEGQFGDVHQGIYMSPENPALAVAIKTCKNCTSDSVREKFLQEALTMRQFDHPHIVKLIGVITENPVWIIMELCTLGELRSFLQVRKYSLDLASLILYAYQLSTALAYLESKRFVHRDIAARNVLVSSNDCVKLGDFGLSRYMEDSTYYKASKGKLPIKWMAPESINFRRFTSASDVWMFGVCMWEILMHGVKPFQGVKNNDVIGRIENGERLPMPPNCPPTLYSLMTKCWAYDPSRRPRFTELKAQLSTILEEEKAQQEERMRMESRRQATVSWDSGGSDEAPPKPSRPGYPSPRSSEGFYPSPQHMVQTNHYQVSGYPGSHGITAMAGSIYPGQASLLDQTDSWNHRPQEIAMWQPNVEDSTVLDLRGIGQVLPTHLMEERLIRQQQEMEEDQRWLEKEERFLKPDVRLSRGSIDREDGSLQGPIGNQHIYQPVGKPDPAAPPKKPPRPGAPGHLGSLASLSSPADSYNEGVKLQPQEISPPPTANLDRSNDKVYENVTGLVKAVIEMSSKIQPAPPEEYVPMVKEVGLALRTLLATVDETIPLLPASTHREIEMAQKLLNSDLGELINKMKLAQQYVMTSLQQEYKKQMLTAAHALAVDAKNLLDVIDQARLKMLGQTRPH
# T1 sequence (Q05397 whole entry): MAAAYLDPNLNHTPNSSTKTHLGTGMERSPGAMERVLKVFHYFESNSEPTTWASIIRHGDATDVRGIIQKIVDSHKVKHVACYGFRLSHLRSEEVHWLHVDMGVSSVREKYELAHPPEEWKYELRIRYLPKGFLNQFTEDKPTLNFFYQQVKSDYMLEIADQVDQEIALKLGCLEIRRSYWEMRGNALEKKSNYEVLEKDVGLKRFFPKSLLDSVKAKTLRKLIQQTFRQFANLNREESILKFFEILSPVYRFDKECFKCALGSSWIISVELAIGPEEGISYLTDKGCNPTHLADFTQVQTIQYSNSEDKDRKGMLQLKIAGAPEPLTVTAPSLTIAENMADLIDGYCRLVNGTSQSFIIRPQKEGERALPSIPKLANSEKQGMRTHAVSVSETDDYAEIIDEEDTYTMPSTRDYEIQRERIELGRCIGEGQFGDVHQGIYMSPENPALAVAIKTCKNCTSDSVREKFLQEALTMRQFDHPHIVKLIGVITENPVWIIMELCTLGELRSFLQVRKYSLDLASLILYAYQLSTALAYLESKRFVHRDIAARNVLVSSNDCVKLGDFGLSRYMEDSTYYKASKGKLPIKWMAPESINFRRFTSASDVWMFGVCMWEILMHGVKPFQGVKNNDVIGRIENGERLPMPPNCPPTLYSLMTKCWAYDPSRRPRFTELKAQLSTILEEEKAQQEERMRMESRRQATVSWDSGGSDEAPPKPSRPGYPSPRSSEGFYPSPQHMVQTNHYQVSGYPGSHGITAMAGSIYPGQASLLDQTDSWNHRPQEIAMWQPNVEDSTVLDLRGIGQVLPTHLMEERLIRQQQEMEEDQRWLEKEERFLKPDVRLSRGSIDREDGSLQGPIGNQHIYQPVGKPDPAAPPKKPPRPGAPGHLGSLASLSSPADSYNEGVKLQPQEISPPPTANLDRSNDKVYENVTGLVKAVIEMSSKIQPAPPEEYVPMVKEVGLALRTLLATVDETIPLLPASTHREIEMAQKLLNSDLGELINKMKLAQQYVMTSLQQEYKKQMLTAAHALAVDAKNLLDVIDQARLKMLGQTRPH
# Chain of Protein-tyrosine kinase 2-beta (Q14289 whole entry): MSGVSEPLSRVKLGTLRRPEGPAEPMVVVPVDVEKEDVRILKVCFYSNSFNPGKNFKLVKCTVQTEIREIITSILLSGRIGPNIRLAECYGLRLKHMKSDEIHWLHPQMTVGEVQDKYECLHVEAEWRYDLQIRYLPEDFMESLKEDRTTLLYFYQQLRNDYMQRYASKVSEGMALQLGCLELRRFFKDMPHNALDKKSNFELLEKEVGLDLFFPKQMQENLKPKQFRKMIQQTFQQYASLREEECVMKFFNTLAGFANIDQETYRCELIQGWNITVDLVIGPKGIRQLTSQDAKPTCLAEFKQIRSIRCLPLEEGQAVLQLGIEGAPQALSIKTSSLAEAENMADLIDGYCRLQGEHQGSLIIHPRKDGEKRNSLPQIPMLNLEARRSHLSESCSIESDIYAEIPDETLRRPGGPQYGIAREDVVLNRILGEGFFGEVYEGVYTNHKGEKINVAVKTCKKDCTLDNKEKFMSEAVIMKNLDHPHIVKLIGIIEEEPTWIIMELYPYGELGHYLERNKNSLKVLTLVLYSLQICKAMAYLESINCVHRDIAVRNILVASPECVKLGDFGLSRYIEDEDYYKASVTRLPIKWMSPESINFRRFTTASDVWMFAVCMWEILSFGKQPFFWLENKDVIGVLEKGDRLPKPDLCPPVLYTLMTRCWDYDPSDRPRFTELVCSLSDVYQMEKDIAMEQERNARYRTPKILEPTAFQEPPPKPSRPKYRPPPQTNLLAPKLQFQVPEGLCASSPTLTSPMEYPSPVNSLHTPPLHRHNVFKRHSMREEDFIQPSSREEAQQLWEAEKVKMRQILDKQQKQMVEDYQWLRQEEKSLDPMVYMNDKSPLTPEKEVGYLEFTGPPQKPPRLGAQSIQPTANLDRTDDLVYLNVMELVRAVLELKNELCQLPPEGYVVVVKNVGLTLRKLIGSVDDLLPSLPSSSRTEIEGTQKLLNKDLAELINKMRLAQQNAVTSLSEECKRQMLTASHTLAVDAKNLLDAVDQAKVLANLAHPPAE
smiles,measurement,setting,value
CNC(=O)c1ccccc1Nc1cc(Nc2ccc(N3CCOCC3)cc2OC)ncc1C(F)(F)F [VS-4718],IC50,RD,1220 nM
CC1=CC[C@@]2(O)[C@H](CC[C@]2(C)O)C(C)(C)[C@@H]1CC[C@H]1[C@]2(C)CC[C@H](OC(=O)c3ccc(Cl)c(Cl)c3)C(C)(C)O[C@H]2CC[C@@]1(C)O,IC50,MDA-MB-231,7500 nM
same,IC50,MCF7,15200 nM
same,IC50,T47D,25100 nM
same,IC50,BT-474,20100 nM
CONC(=O)c1ccccc1Nc1cc(Nc2cc(C)nn2C(C)C)ncc1Cl [GSK-2256098],IC50,Focal adhesion kinase 1 [1],15 nM
same,IC50,Focal adhesion kinase 1 [2],12 nM
same,IC50,Focal adhesion kinase 1 [3],8.5 nM
CS(=O)(=O)c1cccc(CNc2nc(Nc3ccc4c(c3)CC(=O)N4)ncc2C(F)(F)F)c1,Activity,OVCAR-3,94%
same,IC50,Focal adhesion kinase 1 [4],4 nM
same,IC50,[5],1000 nM
Cc1ncsc1-c1ccc(CNC(=O)[C@@H]2C[C@@H](O)CN2C(=O)[C@@H](NC(=O)CCOCCOc2ccc(Nc3ncc(C(F)(F)F)c(NCc4cccc(N(C)S(C)(=O)=O)c4)n3)cc2)C(C)(C)C)cc1,Emax,[6],99%

# Reference: ChEMBL document CHEMBL4813912, “Progress in the Development of Small Molecular Inhibitors of Focal Adhesion Kinase (FAK)” (J Med Chem, 2020)
